pIC50: −log10 of the molar value.
Legend:
[1] = target: T1, ATM (Homo sapiens, UniProt Q13315); assay: ATM inhibition test (phosphorylation of Chk2 generated by ionizing radiation, AlphaScreen SureFire); format: cell-based; conditions: phosphorylated Chk2 in NCI-H460 cells, ionizing radiation 8Gy, 1 hour after test compound treatment; read-out: ATM inhibitory activity
T1 construct: detecting phosphorylation of Chk2 in a human non-small cell lung cancer cell line NCI-H460 (ATCC company); host or cells: NCI-H460 human non-small cell lung cancer cells
T1 sequence (Q13315 whole entry): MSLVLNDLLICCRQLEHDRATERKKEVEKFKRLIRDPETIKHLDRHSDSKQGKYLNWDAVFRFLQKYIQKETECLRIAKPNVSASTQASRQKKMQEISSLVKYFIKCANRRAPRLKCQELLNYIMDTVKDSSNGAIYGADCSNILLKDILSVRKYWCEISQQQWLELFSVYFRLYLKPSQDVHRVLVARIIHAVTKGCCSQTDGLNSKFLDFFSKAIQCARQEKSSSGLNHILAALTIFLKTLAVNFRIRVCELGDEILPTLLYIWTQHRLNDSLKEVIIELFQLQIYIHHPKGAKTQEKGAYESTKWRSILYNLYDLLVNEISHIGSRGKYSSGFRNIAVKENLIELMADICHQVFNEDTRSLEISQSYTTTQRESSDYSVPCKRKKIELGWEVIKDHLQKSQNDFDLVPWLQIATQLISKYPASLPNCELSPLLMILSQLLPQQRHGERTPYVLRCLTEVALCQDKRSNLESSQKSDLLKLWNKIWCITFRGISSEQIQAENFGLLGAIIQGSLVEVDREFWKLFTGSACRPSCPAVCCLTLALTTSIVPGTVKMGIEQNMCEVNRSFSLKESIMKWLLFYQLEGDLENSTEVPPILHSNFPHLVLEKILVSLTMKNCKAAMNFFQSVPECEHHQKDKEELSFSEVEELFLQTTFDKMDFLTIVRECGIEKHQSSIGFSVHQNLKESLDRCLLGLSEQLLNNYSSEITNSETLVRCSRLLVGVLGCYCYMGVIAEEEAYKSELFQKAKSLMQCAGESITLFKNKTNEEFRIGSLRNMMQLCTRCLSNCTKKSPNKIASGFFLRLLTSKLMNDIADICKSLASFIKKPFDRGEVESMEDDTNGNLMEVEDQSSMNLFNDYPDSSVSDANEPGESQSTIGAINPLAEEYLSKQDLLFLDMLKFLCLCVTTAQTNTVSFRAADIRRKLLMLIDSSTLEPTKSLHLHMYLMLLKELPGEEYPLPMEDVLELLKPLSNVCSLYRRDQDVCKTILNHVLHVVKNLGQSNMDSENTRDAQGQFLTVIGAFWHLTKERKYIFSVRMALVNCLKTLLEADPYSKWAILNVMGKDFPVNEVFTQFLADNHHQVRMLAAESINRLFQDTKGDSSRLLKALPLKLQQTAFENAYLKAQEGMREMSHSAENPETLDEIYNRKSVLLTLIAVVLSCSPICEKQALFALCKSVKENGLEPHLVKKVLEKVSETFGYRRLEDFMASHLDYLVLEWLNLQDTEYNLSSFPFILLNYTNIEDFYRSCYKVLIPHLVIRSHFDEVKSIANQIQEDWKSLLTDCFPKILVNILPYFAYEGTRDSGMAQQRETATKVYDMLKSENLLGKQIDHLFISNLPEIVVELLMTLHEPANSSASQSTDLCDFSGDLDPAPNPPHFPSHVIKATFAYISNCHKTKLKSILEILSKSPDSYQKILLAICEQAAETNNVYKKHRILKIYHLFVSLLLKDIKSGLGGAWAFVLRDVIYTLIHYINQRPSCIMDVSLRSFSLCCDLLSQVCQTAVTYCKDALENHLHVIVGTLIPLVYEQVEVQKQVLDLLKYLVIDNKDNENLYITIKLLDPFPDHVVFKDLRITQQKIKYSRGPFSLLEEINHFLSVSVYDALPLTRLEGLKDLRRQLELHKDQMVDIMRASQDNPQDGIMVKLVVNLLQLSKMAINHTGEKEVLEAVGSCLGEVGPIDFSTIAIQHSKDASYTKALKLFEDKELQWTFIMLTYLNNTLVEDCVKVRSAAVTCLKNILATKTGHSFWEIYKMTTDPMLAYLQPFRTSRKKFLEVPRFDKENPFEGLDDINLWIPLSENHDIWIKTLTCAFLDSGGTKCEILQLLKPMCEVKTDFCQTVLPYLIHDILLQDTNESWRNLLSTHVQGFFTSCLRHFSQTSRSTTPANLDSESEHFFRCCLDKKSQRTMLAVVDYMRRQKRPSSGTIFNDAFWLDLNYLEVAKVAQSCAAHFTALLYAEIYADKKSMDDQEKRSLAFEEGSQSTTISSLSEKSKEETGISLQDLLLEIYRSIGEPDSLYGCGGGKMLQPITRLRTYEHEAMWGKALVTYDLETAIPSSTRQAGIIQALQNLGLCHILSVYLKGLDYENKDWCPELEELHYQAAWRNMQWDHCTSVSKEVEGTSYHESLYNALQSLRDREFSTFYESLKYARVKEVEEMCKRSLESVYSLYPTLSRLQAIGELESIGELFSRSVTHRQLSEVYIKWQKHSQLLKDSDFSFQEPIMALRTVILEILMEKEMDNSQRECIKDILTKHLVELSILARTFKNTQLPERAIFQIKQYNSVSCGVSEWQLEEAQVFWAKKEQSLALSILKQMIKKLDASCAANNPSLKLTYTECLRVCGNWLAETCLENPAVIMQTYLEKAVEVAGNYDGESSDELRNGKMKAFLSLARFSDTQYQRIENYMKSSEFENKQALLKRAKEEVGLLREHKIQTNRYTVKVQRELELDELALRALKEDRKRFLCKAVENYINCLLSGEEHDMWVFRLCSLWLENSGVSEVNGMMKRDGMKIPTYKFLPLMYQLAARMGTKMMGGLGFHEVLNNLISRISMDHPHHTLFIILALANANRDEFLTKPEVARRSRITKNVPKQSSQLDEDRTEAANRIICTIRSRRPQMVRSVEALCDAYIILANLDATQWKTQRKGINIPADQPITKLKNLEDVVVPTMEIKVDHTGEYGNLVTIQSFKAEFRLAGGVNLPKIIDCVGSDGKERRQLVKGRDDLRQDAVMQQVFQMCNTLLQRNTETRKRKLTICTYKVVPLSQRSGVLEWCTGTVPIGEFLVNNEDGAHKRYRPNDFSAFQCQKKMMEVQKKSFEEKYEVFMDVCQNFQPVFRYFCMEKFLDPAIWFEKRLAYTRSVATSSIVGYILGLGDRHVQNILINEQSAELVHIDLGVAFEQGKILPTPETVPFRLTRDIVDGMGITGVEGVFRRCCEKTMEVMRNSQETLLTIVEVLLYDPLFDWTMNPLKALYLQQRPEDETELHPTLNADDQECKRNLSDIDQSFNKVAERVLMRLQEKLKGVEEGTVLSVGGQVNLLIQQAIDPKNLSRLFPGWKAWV
Outline: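 NCI-H460 cells treated with compound for 1 hour, then irradiated with 8Gy and incubated 1 hour at 37° C. Phospho-Chk2 measured by AlphaScreen SureFire. Inhibition ratio calculated relative to untreated irradiated and non-irradiated wells.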

[2] = tested on: human non-small cell lung cancer cell line NCI-H460; assay: Cell proliferation inhibition test by sensitivity-enhancing to ionizing radiation (Cell Titer Glo); format: cell-based; conditions: Homo sapiens, NCI-H460, 120 h, concentration in which SER became 2; NCI-H460 cells, ionizing radiation 2 Gy, cultured 120 hour
Outline: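 Cells seeded at 2×10^3 cells/mL in RPMI-1640 with 10% FBS; after 24 h, compound added (0.1% DMSO), and 30 min later half the plates irradiated at 2 Gy. After 120 hour at 37° C, viability by Cell Titer Glo luminescence; SER2 is the concentration giving SER of 2 by sigmoidal fit.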

Row | pIC50 [1] | SMILES | SER2 (concentration at which the radiation sensitivity-enhancement ratio reaches 2) [2]
1 | > 7.00 | O=c1cc(N2CCOCC2)cc(-c2cccc3c2Oc2ccc(NCc4cc(C5CC5)ccn4)cc2C3)[nH]1 [Example 2-13-10, 6-(7-(((4-Cyclopropylpyridin-2-yl)methyl)amino)-9H-xanthen-4-yl)-4-morpholino pyridin-2(1H)-one] | 100 to 500 nM
2 | > 7.00 | CCOc1ccnc(CNc2ccc3c(c2)Cc2cccc(-c4cc(N5CCOCC5)cc(=O)[nH]4)c2O3)c1 [Example 2-13-11, 6-(7-(((4-Ethoxypyridin-2-yl)methyl)amino)-9H-xanthen-4-yl)-4-morpholino pyridin-2(1H)-one] | 100 to 500 nM
3 | > 7.00 | N#Cc1cncc(CNc2ccc3c(c2)Cc2cccc(-c4cc(N5CCOCC5)cc(=O)[nH]4)c2O3)c1 [Example 2-14-7, 5-(((5-(4-Morpholino-6-oxo-1,6-dihydropyridin-2-yl)-9H-xanthen-2-yl)amino)methyl)nicotinonitrile] | 500 to 2000 nM
4 | > 7.00 | C=C(C)c1cncc(CNc2ccc3c(c2)Cc2cccc(-c4cc(N5CCOCC5)cc(=O)[nH]4)c2O3)c1 [Example 2-14-10, 4-Morpholino-6-(7-(((5-(prop-1-en-2-yl)pyridin-3-yl)methyl)amino)-9H-xanthen-4-yl)pyridin-2 (1H)-one] | 100 to 500 nM
5 | > 7.00 | N#Cc1ccnc(CNc2ccc3c(c2)Cc2cccc(-c4cc(N5CCOCC5)cc(=O)[nH]4)c2O3)c1 [Example 2-14-11, 2-(((5-(4-Morpholino-6-oxo-1,6-dihydropyridin-2-yl)-9H-xanthen-2-yl)amino)methyl) isonicotinonitrile] | 100 to 500 nM
6 | > 7.00 | COC(C)(C)c1cncc(CNc2ccc3c(c2)Cc2cccc(-c4cc(N5CCOCC5)cc(=O)[nH]4)c2O3)c1 [Example 2-14-12, 6-(7-(((5-(2-Methoxypropan-2-yl)pyridin-3-yl)methyl)amino)-9H-xanthen-4-yl)-4-morpholino pyridin-2 (1H)-one] | 100 to 500 nM
7 | > 7.00 | N#Cc1cccc(CNc2ccc3c(c2)Cc2cccc(-c4cc(N5CCOCC5)cc(=O)[nH]4)c2O3)n1 [Example 2-14-13, 6-(((5-(4-Morpholino-6-oxo-1,6-dihydropyridin-2-yl)-9H-xanthen-2-yl)amino)methyl) picolinonitrile] | 100 to 500 nM
8 | > 7.00 | CCC(Nc1ccc2c(c1)Cc1cccc(-c3cc(N4CCOCC4)cc(=O)[nH]3)c1O2)c1cncc(OC)c1 (stereo not shown) [Example 2-14-16, 6-(7-((1-(5-Methoxypyridin-3-yl)propyl)amino)-9H-xanthen-4-yl)-4-morpholino pyridin-2 (1H)-one] | < 100 nM
9 | 6.30 to 7.00 | Cc1cccc(C(C)Nc2ccc3c(c2)Cc2cccc(-c4cc(N5CCOCC5)cc(=O)[nH]4)c2O3)n1 (stereo not shown) [Example 2-14-18, 6-(7-((1-(6-Methylpyridin-2-yl)ethyl)amino)-9H-xanthen-4-yl)-4-morpholino pyridin-2(1H)-one] | 100 to 500 nM
10 | 6.30 to 7.00 | Cc1ccnc(C(C)Nc2ccc3c(c2)Cc2cccc(-c4cc(N5CCOCC5)cc(=O)[nH]4)c2O3)c1 (stereo not shown) [Example 2-14-19, 6-(7-((1-(4-Methylpyridin-2-yl)ethyl)amino)-9H-xanthen-4-yl)-4-morpholino pyridin-2(1H)-one] | 100 to 500 nM
11 | > 7.00 | COc1ccnc(C(C)Nc2ccc3c(c2)Cc2cccc(-c4cc(N5CCOCC5)cc(=O)[nH]4)c2O3)c1 (stereo not shown) [Example 2-14-20, 6-(7-((1-(4-Methoxypyridin-2-yl)ethyl)amino)-9H-xanthen-4-yl)-4-morpholino pyridin-2(1H)-one] | < 100 nM
12 | > 7.00 | CC(Nc1ccc2c(c1)Cc1cccc(-c3cc(N4CCOCC4)cc(=O)[nH]3)c1O2)c1cccc(F)n1 (stereo not shown) [Example 2-14-21, 6-(7-((1-(6-Fluoropyridin-2-yl)ethyl)amino)-9H-xanthen-4-yl)-4-morpholino pyridin-2(1H)-one] | 100 to 500 nM
13 | > 7.00 | CC(Nc1ccc2c(c1)Cc1cccc(-c3cc(N4CCOCC4)cc(=O)[nH]3)c1O2)c1cc(Cl)ccn1 (stereo not shown) [Example 2-14-23, 6-(7-((1-(4-Chloropyridin-2-yl)ethyl)amino)-9H-xanthen-4-yl)-4-morpholino pyridin-2(1H)-one] | 100 to 500 nM
14 | > 7.00 | Cc1cnc(C(C)Nc2ccc3c(c2)Cc2cccc(-c4cc(N5CCOCC5)cc(=O)[nH]4)c2O3)cn1 (stereo not shown) [Example 2-14-24, 6-(7-((1-(5-Methylpyrazin-2-yl)ethyl)amino)-9H-xanthen-4-yl)-4-morpholino pyridin-2(1H)-one] | 100 to 500 nM
15 | > 7.00 | COCC(Nc1ccc2c(c1)Cc1cccc(-c3cc(N4CCOCC4)cc(=O)[nH]3)c1O2)c1cccc(C)n1 (stereo not shown) [Example 2-14-45, 6-(7-((2-Methoxy-1-(6-methylpyridin-2-yl)ethyl)amino)-9H-xanthen-4-yl)-4-morpholino pyridin-2 (1H)-one] | 100 to 500 nM
16 | > 7.00 | COc1cnc(C(C)Nc2ccc3c(c2)Cc2cccc(-c4cc(N5CCOCC5)cc(=O)[nH]4)c2O3)cn1 (stereo not shown) [Example 2-14-51, 6-(7-((1-(5-Methoxypyrazin-2-yl)ethyl)amino)-9H-xanthen-4-yl)-4-morpholino pyridin-2(1H)-one] | 100 to 500 nM
17 | > 7.00 | CC(Nc1ccc2c(c1)Cc1cccc(-c3cc(N4CCOCC4)cc(=O)[nH]3)c1O2)c1nccc(CF)n1 (stereo not shown) [Example 2-14-61, 6-(7-((1-(4-(Fluoromethyl)pyrimidin-2-yl)ethyl)amino)-9H-xanthen-4-yl)-4-morpholino pyridin-2(1H)-one] | < 100 nM
18 | > 7.00 | CC(Nc1ccc2c(c1)Cc1cccc(-c3cc(N4CCOCC4)cc(=O)[nH]3)c1O2)c1nccc(C(F)F)n1 (stereo not drawn) [Example 2-14-62, 6-(7-((l-(4-(Difluoromethyl)pyrimidin-2-yl)ethyl)amino)-9H-xanthen-4-yl)-4-morpholino pyridin-2(1H)-one] | 100 to 500 nM
19 | > 7.00 | Cc1cnc(C(C)Nc2ccc3c(c2)Cc2cccc(-c4cc(N5CCOCC5)cc(=O)[nH]4)c2O3)nc1 (stereo not shown) [Example 2-14-80, 6-(7-((1-(5-Methylpyrimidin-2-yl)ethyl)amino)-9H-xanthen-4-yl)-4-morpholino pyridin-2 (1H)-one] | 100 to 500 nM
20 | > 7.00 | O=c1cc(N2CCOCC2)cc(-c2cccc3c2Oc2ccc(NCc4ccnc(F)c4)cc2C3)[nH]1 [Example 2-21-2, 6-(7-(((2-Fluoropyridin-4-yl)methyl)amino)-9H-xanthen-4-yl)-4-morpholinopyridin-2 (1H)-one] | 100 to 500 nM

Reference: patent publication US9586951B2 (FUJIFILM Corporation, priority 2013, dated 2017)
